Experimental data: US10010547B2 (CASCADIAN THERAPEUTICS, INC., priority 2014, dated 2018)
Where a name gives a salt, the structure may show the parent alone. Read-outs that look alike come from different tables or passages of the source.

Tests used:
Chk-1 kinase = Chk-1 kinase (Homo sapiens (Human), UniProt O14757); experiment: Chk-1 Kinase Inhibiting Activity (33P-ATP filter assay, CHKtide substrate); type: biochemical; settings: against Chk-1 kinase; read-out: IC50
Method in brief: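 Full-length N-terminal GST-tagged human Chk-1 from insect cells, 0.5 nM final, with 20 μM peptide substrate and 33P-ATP in HEPES pH 7.5 buffer with 1% DMSO. Reaction ran 120 minutes at room temperature; incorporated radioactivity captured on P81 filters and counted for IC50.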

MIA PaCa-2 cells = experiment: Gemcitabine Combination Cell Assay (Cell Titer Glo); type: cell-based; settings: for IC50: Homo sapiens; for 10xLS: approximate concentration of Chk1 inhibitor that results in a 10-fold reduction in the IC50 of gemcitabine alone; for 2xLS: approximate concentration of Chk1 inhibitor that results in a two-fold reduction in the IC50 of gemcitabine alone
Method in brief: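 MIA PaCa-2 cells were treated 72 h with half-log dilutions of Chk1 inhibitor (top 3000 nM) and gemcitabine (top 100 nM), alone and in full matrix; viability by CellTiter-Glo luminescence. IC50s from four-parameter fit; Chk1 inhibitor concentrations giving two- and ten-fold lowering of gemcitabine IC50 were estimated.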

[1] = Chk1 inhibitor alone, MIA PaCa-2 cells, 72 h, read-out: Chk1 IC50
[2] = MIA PaCa-2, 72 h, read-out: Chk1 IC50 (nM)

Sequence of Chk-1 kinase (O14757 whole entry): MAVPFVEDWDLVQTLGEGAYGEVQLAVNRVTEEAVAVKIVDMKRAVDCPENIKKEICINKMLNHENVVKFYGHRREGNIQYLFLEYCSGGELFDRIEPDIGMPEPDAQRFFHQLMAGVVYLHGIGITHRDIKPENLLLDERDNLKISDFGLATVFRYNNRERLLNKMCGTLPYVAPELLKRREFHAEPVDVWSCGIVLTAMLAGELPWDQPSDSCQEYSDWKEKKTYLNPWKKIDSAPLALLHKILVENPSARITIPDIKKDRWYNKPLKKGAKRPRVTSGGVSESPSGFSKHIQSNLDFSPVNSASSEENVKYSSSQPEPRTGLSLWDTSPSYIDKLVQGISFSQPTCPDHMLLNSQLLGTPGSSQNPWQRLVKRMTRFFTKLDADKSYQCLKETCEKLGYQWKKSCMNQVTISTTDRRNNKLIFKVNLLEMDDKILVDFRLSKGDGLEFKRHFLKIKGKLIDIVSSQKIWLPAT

COc1cc(C2CCNCC2)ccc1-c1cc(Nc2ccc(C#N)cn2)n[nH]1 [Example 50, 6-[[5-[2-methoxy-4-(4-piperidyl)phenyl]-1H-pyrazol-3-yl]amino]pyridine-3-carbonitrile]
IC50 (Chk-1 kinase): 20 nM | IC50 (MIA PaCa-2 cells; [1]): > 3000 nM | 10xLS (MIA PaCa-2 cells; MIA PaCa-2 cells, 72 h): 3000 nM | 2xLS (MIA PaCa-2 cells; MIA PaCa-2 cells, 72 h): 300 nM

COCCN1CCC(c2ccc(-c3cc(Nc4cnc(C#N)cn4)n[nH]3)c(OC)c2)CC1 [Example 89, 5-[[5-[2-methoxy-4-[1-(2-methoxyethyl)-4-piperidyl]phenyl]-1H-pyrazol-3-yl]amino]pyrazine-2-carbonitrile]
IC50 (Chk-1 kinase): 0.051 nM | IC50 (MIA PaCa-2 cells; [1]): 193 nM | 10xLS (MIA PaCa-2 cells; MIA PaCa-2 cells, 72 h): 100 nM | 2xLS (MIA PaCa-2 cells; MIA PaCa-2 cells, 72 h): <3 nM

COc1cc(CN[C@@H]2CCOC2)ccc1-c1cc(Nc2cnc(C#N)cn2)n[nH]1 [Example 131, 5-[[5-[2-methoxy-4-[[[(3R)-tetrahydrofuran-3-yl]amino]methyl]phenyl]-1H-pyrazol-3-yl]amino]pyrazine-2-carbonitrile]
IC50 (Chk-1 kinase): 0.1 nM | IC50 (MIA PaCa-2 cells; [1]): 592 nM | 10xLS (MIA PaCa-2 cells; MIA PaCa-2 cells, 72 h): 100 nM | 2xLS (MIA PaCa-2 cells; MIA PaCa-2 cells, 72 h): 3 nM

COc1cc(NCC2CCN(C(C)C)CC2)ccc1-c1cc(Nc2cnc(C#N)cn2)n[nH]1 [Example 109, 5-[[5-[4-[(1-isopropyl-4-piperidyl)methylamino]-2-methoxy-phenyl]-1H-pyrazol-3-yl]amino]pyrazine-2-carbonitrile]
IC50 (Chk-1 kinase): 0.087 nM | IC50 (MIA PaCa-2 cells; [1]): 82 nM | 10xLS (MIA PaCa-2 cells; MIA PaCa-2 cells, 72 h): <30 nM | 2xLS (MIA PaCa-2 cells; MIA PaCa-2 cells, 72 h): <3 nM

COc1cc(C2CCN(C)CC2(F)F)ccc1-c1cc(Nc2cnc(C#N)cn2)n[nH]1 (centres unmarked) [Example 97, 5-[[5-[4-(3,3-Difluoro-1-methyl-4-piperidyl)-2-methoxy-phenyl]-1H-pyrazol-3-yl]amino]pyrazine-2-carbonitrile hydrochloride]
IC50 (Chk-1 kinase): 1.1 nM | IC50 (MIA PaCa-2 cells; [2]): 1500 nM | 10xLS (MIA PaCa-2 cells; MIA PaCa-2 cells, 72 h): 300 nM | 2xLS (MIA PaCa-2 cells; MIA PaCa-2 cells, 72 h): 10 nM

COc1cc(CN[C@H](C)c2ccc(F)cc2)ccc1-c1cc(Nc2cnc(C#N)cn2)n[nH]1 [Example 7, 5-[5-(4-{[(R)-1-(4-fluoro-phenyl)-ethylamino]-methyl}-2-methoxy-phenyl)-1H-pyrazol-3-ylamino]-pyrazine-2-carbonitrile]
IC50 (Chk-1 kinase): 0.1 nM | IC50 (MIA PaCa-2 cells; [1]): 208 nM | 10xLS (MIA PaCa-2 cells; MIA PaCa-2 cells, 72 h): ~200 nM | 2xLS (MIA PaCa-2 cells; MIA PaCa-2 cells, 72 h): 10 nM

CCN1CCCN(c2ccc(-c3cc(Nc4cnc(C#N)cn4)n[nH]3)c(OC)c2)CC1 [Example 83, 5-[[5-[4-(4-ethyl-1,4-diazepan-1-yl)-2-methoxy-phenyl]-1H-pyrazol-3-yl]amino]pyrazine-2-carbonitrile]
IC50 (Chk-1 kinase): 0.11 nM | IC50 (MIA PaCa-2 cells; [1]): 107 nM | 10xLS (MIA PaCa-2 cells; MIA PaCa-2 cells, 72 h): <100 nM | 2xLS (MIA PaCa-2 cells; MIA PaCa-2 cells, 72 h): <3 nM

COc1cc(OCC2CCN(C)CC2)ccc1-c1cc(Nc2cnc(C#N)cn2)n[nH]1 [Example 29, 5-[[5-[2-methoxy-4-[(1-methyl-4-piperidyl)methoxy]phenyl]-1H-pyrazol-3-yl]amino]pyrazine-2-carbonitrile]
IC50 (Chk-1 kinase): 0.068 nM | IC50 (MIA PaCa-2 cells; [1]): 176 nM | 10xLS (MIA PaCa-2 cells; MIA PaCa-2 cells, 72 h): 100 nM | 2xLS (MIA PaCa-2 cells; MIA PaCa-2 cells, 72 h): 3 nM

COc1cc(CN(C)C(C)C)ccc1-c1cc(Nc2cnc(C#N)cn2)n[nH]1 [Example 100, 5-[[5-[4-[[isopropyl(methyl)amino]methyl]-2-methoxy-phenyl]-1H-pyrazol-3-yl]amino]pyrazine-2-carbonitrile]
IC50 (Chk-1 kinase): 0.053 nM | IC50 (MIA PaCa-2 cells; [1]): 247 nM | 10xLS (MIA PaCa-2 cells; MIA PaCa-2 cells, 72 h): <100 nM | 2xLS (MIA PaCa-2 cells; MIA PaCa-2 cells, 72 h): 3 nM

COc1cc(C2CCCNC2)ccc1-c1cc(Nc2cnc(C#N)cn2)n[nH]1 (centres unmarked) [Example 39, 5-[[5-[2-methoxy-4-(3-piperidyl)phenyl]-1H-pyrazol-3-yl]amino]pyrazine-2-carbonitrile]
IC50 (Chk-1 kinase): 0.18 nM | IC50 (MIA PaCa-2 cells; [1]): 168 nM | 10xLS (MIA PaCa-2 cells; MIA PaCa-2 cells, 72 h): 30 nM | 2xLS (MIA PaCa-2 cells; MIA PaCa-2 cells, 72 h): <3 nM

COc1cc(CNCC2CC2)ccc1-c1cc(Nc2cnc(C#N)cn2)n[nH]1 [Example 130, 5-[[5-[4-[(cyclopropylmethylamino)methyl]-2-methoxy-phenyl]-1H-pyrazol-3-yl]amino]pyrazine-2-carbonitrile]
IC50 (Chk-1 kinase): 0.025 nM | IC50 (MIA PaCa-2 cells; [1]): 142 nM | 10xLS (MIA PaCa-2 cells; MIA PaCa-2 cells, 72 h): <100 nM | 2xLS (MIA PaCa-2 cells; MIA PaCa-2 cells, 72 h): 3 nM

COc1cc(CNCc2ccccc2)ccc1-c1cc(Nc2cnc(C#N)cn2)n[nH]1 [Example 3, 5-{5-[4-(Benzylamino-methyl)-2-methoxy-phenyl]-1H-pyrazol-3-ylamino}-pyrazine-2-carbonitrile hydrochloride]
IC50 (Chk-1 kinase): 0.21 nM | IC50 (MIA PaCa-2 cells; [2]): 275 nM | 10xLS (MIA PaCa-2 cells; MIA PaCa-2 cells, 72 h): 100 nM | 2xLS (MIA PaCa-2 cells; MIA PaCa-2 cells, 72 h): 10 nM

COc1cc(N2CCCN(C)CC2)ccc1-c1cc(Nc2cnc(C#N)cn2)n[nH]1 [Example 23, 5-[[5-[2-methoxy-4-(4-methyl-1,4-diazepan-1-yl)phenyl]-1H-pyrazol-3-yl]amino]pyrazine-2-carbonitrile]
IC50 (Chk-1 kinase): 0.12 nM | IC50 (MIA PaCa-2 cells; [1]): 266 nM | 10xLS (MIA PaCa-2 cells; MIA PaCa-2 cells, 72 h): <100 nM | 2xLS (MIA PaCa-2 cells; MIA PaCa-2 cells, 72 h): <3 nM

COc1cc(CN[C@H](C)CN2CCOCC2)ccc1-c1cc(Nc2cnc(C#N)cn2)n[nH]1 [Example 18, 5-[[5-[2-methoxy-4-[[[(1R)-1-methyl-2-morpholino-ethyl]amino]methyl]phenyl]-1H-pyrazol-3-yl]amino]pyrazine-2-carbonitrile]
IC50 (Chk-1 kinase): 0.17 nM | IC50 (MIA PaCa-2 cells; [1]): 1610 nM | 10xLS (MIA PaCa-2 cells; MIA PaCa-2 cells, 72 h): ~200 nM | 2xLS (MIA PaCa-2 cells; MIA PaCa-2 cells, 72 h): ~5 nM

COc1cc(C2CCNCC2)ccc1-c1cc(Nc2ccc(C#N)c(F)c2)n[nH]1 [Example 49, 2-fluoro-4-[[5-[2-methoxy-4-(4-piperidyl)phenyl]-1H-pyrazol-3-yl]amino]benzonitrile]
IC50 (Chk-1 kinase): 36 nM | IC50 (MIA PaCa-2 cells; [1]): 3570 nM | 10xLS (MIA PaCa-2 cells; MIA PaCa-2 cells, 72 h): <3000 nM | 2xLS (MIA PaCa-2 cells; MIA PaCa-2 cells, 72 h): 1000 nM

COc1cc([C@@H]2CN(C)CCO2)ccc1-c1cc(Nc2cnc(C#N)cn2)n[nH]1 [Example 117, 5-[[5-[2-Methoxy-4-[(2R)-4-methylmorpholin-2-yl]phenyl]-1H-pyrazol-3-yl]amino]pyrazine-2-carbonitrile hydrochloride]
IC50 (Chk-1 kinase): 0.027 nM | IC50 (MIA PaCa-2 cells; [2]): 1890 nM | 10xLS (MIA PaCa-2 cells; MIA PaCa-2 cells, 72 h): 1000 nM | 2xLS (MIA PaCa-2 cells; MIA PaCa-2 cells, 72 h): 10 nM

CN1CCC(c2ccc(-c3cc(Nc4cnc(C#N)cn4)n[nH]3)c(F)c2)CC1 [Example 21, 5-[[5-[2-fluoro-4-(1-methyl-4-piperidyl)phenyl]-1H-pyrazol-3-yl]amino]pyrazine-2-carbonitrile]
IC50 (Chk-1 kinase): 2.4 nM | IC50 (MIA PaCa-2 cells; [1]): 3180 nM | 10xLS (MIA PaCa-2 cells; MIA PaCa-2 cells, 72 h): 1000 nM | 2xLS (MIA PaCa-2 cells; MIA PaCa-2 cells, 72 h): 100 nM

COc1cc(C2CCNCC2)c(Cl)cc1-c1cc(Nc2cnc(C#N)cn2)n[nH]1 [Example 68, 5-[[5-[5-chloro-2-methoxy-4-(4-piperidyl)phenyl]-1H-pyrazol-3-yl]amino]pyrazine-2-carbonitrile]
IC50 (Chk-1 kinase): 2.9 nM | IC50 (MIA PaCa-2 cells; [1]): 1380 nM | 10xLS (MIA PaCa-2 cells; MIA PaCa-2 cells, 72 h): 1000 nM | 2xLS (MIA PaCa-2 cells; MIA PaCa-2 cells, 72 h): 100 nM

COc1cc(OCC2CCOCC2)ccc1-c1cc(Nc2cnc(C#N)cn2)n[nH]1 [Example 75, 5-[[5-[2-methoxy-4-(tetrahydropyran-4-ylmethoxy)phenyl]-1H-pyrazol-3-yl]amino]pyrazine-2-carbonitrile]
IC50 (Chk-1 kinase): 0.55 nM | IC50 (MIA PaCa-2 cells; [1]): > 3000 nM | 10xLS (MIA PaCa-2 cells; MIA PaCa-2 cells, 72 h): >3000 nM | 2xLS (MIA PaCa-2 cells; MIA PaCa-2 cells, 72 h): >3000 nM

COc1cc(CO[C@H]2CCN(C(C)C)C2)ccc1-c1cc(Nc2cnc(C#N)cn2)n[nH]1 [Example 139, 5-[[5-[4-[[(3S)-1-isopropylpyrrolidin-3-yl]oxymethyl]-2-methoxy-phenyl]-1H-pyrazol-3-yl]amino]pyrazine-2-carbonitrile]
IC50 (Chk-1 kinase): 0.027 nM | IC50 (MIA PaCa-2 cells; [1]): 743 nM | 10xLS (MIA PaCa-2 cells; MIA PaCa-2 cells, 72 h): 300 nM | 2xLS (MIA PaCa-2 cells; MIA PaCa-2 cells, 72 h): 10 nM
